Results reported in US20110275576A1, “Carbohydrate-Cyclopamine Conjugates as Anticancer Agents” (Utah State University, priority 2009, published 2011).
Where two headings read alike, the source gives them in different places.

Test system: A549 cells
Assay: MTS assay, proliferation of A549 cells
Format: cell-based, human
Settings: for proliferation of A549 cells: statement on Table 1; for IC50: read-out: IC50, anticancer activity against lung cancer
Method: Experimental procedure for MTS assay. To determine the efficacy of the compounds to cancer cells, a 3-(4,5-dimethylthiazol-2-yl)-5-(3-carboxymethoxyphenyl)-2-(4- sulfophenyl)-2H-tetrazolium inner salt (MTS) assay was used. A549 cells (ATCC, Manassas, Va.), representing a human lung carcinoma cell line, were plated on flat-bottomed 96-well plates in the presence of various concentrations of each compound. After incubation for up to 48 h at 37° C., the percentage of cell proliferation was determined with the MTS assay (Promega CellTiter 96 Aqueous Assay. Madison, Wis.), following the manufacturer's instruction.

[1] = A549 human lung carcinoma cells, MTS assay, incubation up to 48 h at 37° C.

With CC1=C2C[C@H]3[C@@H](CC=C4C[C@@H](O)CC[C@@]43C)[C@@H]2CC[C@]12O[C@@H]1C[C@H](C)CN(Cc3cn([C@@H]4OC(CO)[C@@H](O)C(O)C4O)nn3)[C@H]1[C@H]2C (stereo partly drawn) [Example 3a, N-(1-(β-D-Glucopyranosyl)-1H-1,2,3-triazol-4-yl)methylcyclopamine] the “proliferation of A549 cells” value (A549 cells, MTS assay) was “reduced the proliferation of A549 cells” and the IC50 [1] was 144 µM.

With CC1=C2C[C@H]3[C@@H](CC=C4C[C@@H](O)CC[C@@]43C)[C@@H]2CC[C@]12O[C@@H]1C[C@H](C)CN(Cc3cn([C@@H]4OC(CO)[C@@H](O[C@@H]5OC(CO)[C@H](O)C(O)C5O)C(O)C4O)nn3)[C@H]1[C@H]2C (stereo partly drawn) [Example 3d, N-(1-(4-O-(β-D-Galactopyranosyl)-β-D-glucopyranosyl)-1H-1,2,3-triazol-4-yl)methylcyclopamine] the “proliferation of A549 cells” value (A549 cells, MTS assay) was “reduced the proliferation of A549 cells” and the IC50 (Homo sapiens, A549, 48 h) was 183 µM.

CC1=C2C[C@H]3[C@@H](CC=C4C[C@@H](O)CC[C@@]43C)[C@@H]2CC[C@]12O[C@@H]1C[C@H](C)CN(Cc3cn(C4OC(C)[C@H](O)C(O)[C@@H]4O)nn3)[C@H]1[C@H]2C (stereo partly drawn) [Example 3f, N-(1-(α-L-Rhamnopyranosyl)-1H-1,2,3-triazol-4-yl)methylcyclopamine] was tested, and the “proliferation of A549 cells compared with cyclopamine” value (A549 cells, MTS assay, comparison with cyclopamine) was “reduced the proliferation of A549 cells more than cyclopamine”, the “proliferation of A549 cells” value (A549 cells, MTS assay) was “reduced the proliferation of A549 cells” and the IC50 [1] was 33 µM.

In the case of CC1=C2C[C@H]3[C@@H](CC=C4C[C@@H](O)CC[C@@]43C)[C@@H]2CC[C@]12O[C@@H]1C[C@H](C)CN(Cc3cn([C@@H]4OC(CO)[C@@H](O[C@@H]5OC(CO)[C@@H](O[C@@H]6OC(CO)[C@@H](O)C(O)C6O)C(O)C5O)C(O)C4O)nn3)[C@H]1[C@H]2C (stereo partly shown) [Example 3k], the “proliferation of A549 cells” value (A549 cells, MTS assay) is reported as “reduced the proliferation of A549 cells” and the IC50 [1] is reported as 96 µM.

CC1=C2C[C@H]3[C@@H](CC=C4C[C@@H](O)CC[C@@]43C)[C@@H]2CC[C@]12O[C@@H]1C[C@H](C)CN[C@H]1[C@H]2C [cyclopamine] gave an IC50 (Homo sapiens, A549, 48 h) of 49 µM.
